Data published in patent US8821938B2, “Porous drug matrices and methods of manufacture thereof” (Acusphere, Inc., priority 1999, dated 2014).

Key:
Assay type in all cases: physicochemical
[1] = Drug integrity post processing by HPLC
Protocol: Drug integrity post processing was assessed by High Pressure Liquid Chromatography (“HPLC”) (Hewlett Packard Series 1100 HPLC). […] For paclitaxel, the chromatographic conditions included a Nucleosil column (5:m, C18, 100A, 250×4.6 mm), a mobile phase of 2 mM H3PO4/Acetonitrile (2:3) at a flow rate of 1.5 mL/min, UV detection at 227 nm, and a run time of 25 min.

[2] = Particle size and surface area of drug particles in wetted matrices, Coulter Multisizer II; conditions: reconstituted in aqueous media; electrolyte pre-saturated with drug
Protocol: Particle size analysis was performed using the Coulter Multisizer II with a 50 micron aperture using siphon mode. Electrolyte was pre-saturated with the drug of interest, and filtered through a 0.22 micron filter prior to addition of lots for analysis to ensure that no portion of the drug within the lot would dissolve during the analysis.

[3] = Density of dry powder by Transaxial Pressure (TAP), Micromeritics GeoPyc 1360; conditions: consolidation force of 8 Newtons

Row | Compound | Purity (drug integrity post processing) [1] [%] | Size (mean particle size of drug particles) [2] [microns] | Surface Area (total surface area of drug particles) [2] | Density [3] [g/mL]
1 | CC(=O)O[C@H]1C(=O)[C@@]2(C)[C@H]([C@H](OC(=O)c3ccccc3)[C@]3(O)C[C@H](OC(=O)[C@H](O)[C@@H](NC(=O)c4ccccc4)c4ccccc4)C(C)=C1C3(C)C)[C@]1(OC(C)=O)CO[C@@H]1C[C@@H]2O [Paclitaxel Bulk, paclitaxel] | 100 | – | – | –
2 | COc1ccc2cc([C@H](C)C(=O)O)ccc2c1 [Naproxen Bulk, naproxen] | – | 2.89 | 0.66 m^2/mL of microparticles | –
3 | COC1=CC(=O)C[C@@H](C)[C@]12Oc1c(Cl)c(OC)cc(OC)c1C2=O [Griseofulvin Bulk, griseofulvin] | 95.7 | 2.42 | 0.88 m^2/mL of microparticles | 0.80
4 | C[C@]12C=CC(=O)C=C1CC[C@@H]1[C@@H]2C(=O)C[C@@]2(C)[C@H]1CC[C@]2(O)C(=O)CO [Prednisone Bulk, prednisone] | 100 | 2.07 | 1.43 m^2/mL of microparticles | 0.68
